Test results as given in US9938261B2, “Heterocyclic compounds and methods of use thereof” (AMBIT BIOSCIENCES CORPORATION, priority 2011, dated 2018).

Biological target: CSF1R (Homo sapiens, UniProt P07333)
Assay: HEK293 CSF1R phosphorylation MSD assay
Assay type: cell-based
Parameters: expressed in transfected cells; host or cells: HEK293
Settings: HEK293 cells, M-CSF stimulated CSF1R phosphorylation, MSD; read-out: HEK293 pCSF1R M-CSF MSD:IC50
Method in brief: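 Ligand-induced CSF1R autophosphorylation was measured by MSD sandwich assay: CSF1R-FKBP from lysates captured via FK506, anti-phosphotyrosine readout. Cells were exposed to compound for 2 h (9-point, half-log, 0.5% DMSO) before 5 min 50 ng/mL M-CSF. Reported IC50 is the mean of duplicate-plate IC50s relative to DMSO control.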

Sequence of CSF1R (P07333 20-972): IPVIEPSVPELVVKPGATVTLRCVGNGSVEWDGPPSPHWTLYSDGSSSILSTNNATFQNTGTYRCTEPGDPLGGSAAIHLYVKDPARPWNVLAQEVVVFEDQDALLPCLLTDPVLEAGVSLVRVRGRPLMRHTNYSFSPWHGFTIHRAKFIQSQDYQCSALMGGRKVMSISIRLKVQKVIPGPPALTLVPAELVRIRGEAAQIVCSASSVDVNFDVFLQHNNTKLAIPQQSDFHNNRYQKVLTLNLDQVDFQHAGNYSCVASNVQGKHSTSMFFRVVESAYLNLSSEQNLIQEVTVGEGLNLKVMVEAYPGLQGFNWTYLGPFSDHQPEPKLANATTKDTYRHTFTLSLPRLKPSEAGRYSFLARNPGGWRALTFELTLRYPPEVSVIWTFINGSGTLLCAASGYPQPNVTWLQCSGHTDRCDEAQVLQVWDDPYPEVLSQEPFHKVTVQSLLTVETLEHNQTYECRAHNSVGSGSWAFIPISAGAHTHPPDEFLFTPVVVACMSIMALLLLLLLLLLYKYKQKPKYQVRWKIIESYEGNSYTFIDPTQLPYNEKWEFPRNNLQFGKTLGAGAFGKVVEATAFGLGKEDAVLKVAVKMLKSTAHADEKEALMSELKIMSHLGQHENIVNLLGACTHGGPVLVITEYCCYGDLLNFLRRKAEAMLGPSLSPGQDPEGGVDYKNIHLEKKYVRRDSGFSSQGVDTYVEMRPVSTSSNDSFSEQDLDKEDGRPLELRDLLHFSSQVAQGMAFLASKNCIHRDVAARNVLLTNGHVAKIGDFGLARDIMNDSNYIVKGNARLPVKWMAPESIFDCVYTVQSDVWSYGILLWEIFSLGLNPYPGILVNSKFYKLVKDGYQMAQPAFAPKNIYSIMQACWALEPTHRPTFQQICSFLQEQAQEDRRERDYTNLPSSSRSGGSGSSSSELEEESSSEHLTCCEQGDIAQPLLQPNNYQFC

Compound	IC50
Cn1cc(-c2ccc3c(c2)ncn3Cc2ccc3nc(N[C@@H]4CCCC[C@H]4O)sc3c2)c(C(F)(F)F)n1 [Example 185, (1R,2R)-2-((6-((5-(1-methyl-3-(trifluoromethyl)-1H-pyrazol-4-yl)-1H-benzo[d]imidazol-1-yl)methyl)benzo[d]thiazol-2-yl)amino)cyclohexanol]	50 to 200 nM
CN1CCN(c2ccn3c(Cc4ccc5nc(N[C@@H]6CCCC[C@H]6O)sc5c4)cnc3c2)CC1 [Example 188, (1R,2R)-2-((6-((7-(4-methylpiperazin-1-yl)imidazo[1,2-a]pyridin-3-yl)methyl)benzo[d]thiazol-2-yl)amino)cyclohexanol]	50 to 200 nM
O[C@@H]1CCCC[C@H]1Nc1nc2ccc(Cn3cnc4cnc(C(F)(F)F)nc43)cc2s1 [Example 105, (1R,2R)-2-((6-((2-(trifluoromethyl)-9H-purin-9-yl)methyl)benzo[d]thiazol-2-yl)amino)cyclohexanol]	200 to 500 nM
Cc1cc(C)c2c(c1)ncn2Cc1ccc2nc(N[C@@H]3CCCC[C@H]3O)sc2c1 [Example 189]	200 to 500 nM
CC(C)(O)C#Cc1cnc2c(c1)ncn2Cc1ccc2nc(N[C@@H]3CCCC[C@H]3O)sc2c1 [Example 104, (1R,2R)-2-((6-((6-(3-hydroxy-3-methylbut-1-yn-1-yl)-3H-imidazo[4,5-b]pyridin-3-yl)methyl)benzo[d]thiazol-2-yl)amino)cyclohexanol]	≤ 50 nM
N#Cc1cc2ncn(Cc3ccc4nc(N[C@@H]5CCCC[C@H]5O)oc4c3)c2cc1Cl [Example 195, 6-chloro-1-((2-(((1R,2R)-2-hydroxycyclohexyl)amino)benzo[d]oxazol-6-yl)methyl)-1H-benzo[d]imidazole-5-carbonitrile]	200 to 500 nM
OC[C@H]1CCC[C@@H](Nc2nc3ccc(Cn4cnc5cc(F)cnc54)cc3s2)C1 [Example 194, ((1S,3R)-3-((6-((6-fluoro-3H-imidazo[4,5-b]pyridin-3-yl)methyl)benzo[d]thiazol-2-yl)amino)cyclohexyl)methanol]	50 to 200 nM
O[C@@H]1[C@H](O)CCC[C@H]1Nc1nc2ccc(Cn3cnc4cc(F)cnc43)cc2s1 [Example 193, (1R,2S,3R)-3-((6-((6-fluoro-3H-imidazo[4,5-b]pyridin-3-yl)methyl)benzo[d]thiazol-2-yl)amino)cyclohexane-1,2-diol]	≤ 50 nM
O[C@@H]1CCCC[C@H]1Nc1nc2ccc(Cc3cnc4cc(N5CCOCC5)ccn34)cc2s1 [Example 187, (1R,2R)-2-((6-((7-morpholinoimidazo[1,2-a]pyridin-3-yl)methyl)benzo[d]thiazol-2-yl)amino)cyclohexanol]	50 to 200 nM
Fc1cnc2c(c1)ncn2Cc1ccc2nc(Nc3ccccc3)sc2c1 [Example 191, 6-((6-fluoro-3H-imidazo[4,5-b]pyridin-3-yl)methyl)-N-phenylbenzo[d]thiazol-2-amine]	> 500 nM
Cc1cc(Br)cc2ncn(Cc3ccc4nc(N[C@@H]5CCCC[C@H]5O)sc4c3)c12 [Example 190, (1R,2R)-2-((6-((5-bromo-7-methyl-1H-benzo[d]imidazol-1-yl)methyl)benzo[d]thiazol-2-yl)amino)cyclohexanol]	> 500 nM
OC[C@H]1CC[C@@H](Nc2nc3ccc(Cn4cnc5cc(F)cnc54)cc3s2)CC1 [Example 180, (cis-4-((6-((6-fluoro-3H-imidazo[4,5-b]pyridin-3-yl)methyl)benzo[d]thiazol-2-yl)amino)cyclohexyl)methanol]	> 500 nM
CN1CCN(c2ccc3ncc(Cc4ccc5nc(N[C@@H]6CCCC[C@H]6O)sc5c4)n3n2)CC1 [Example 178, (1R,2R)-2-((6-((6-(4-methylpiperazin-1-yl)imidazo[1,2-b]pyridazin-3-yl)methyl)benzo[d]thiazol-2-yl)amino)cyclohexanol]	200 to 500 nM
C=Cc1ccc2c(c1)ncn2Cc1ccc2nc(N[C@@H]3CCCC[C@H]3O)sc2c1 [Example 183, (1R,2R)-2-((6-((5-vinyl-1H-benzo[d]imidazol-1-yl)methyl)benzo[d]thiazol-2-yl)amino)cyclohexanol]	≤ 50 nM
O[C@@H]1CCCC[C@H]1Nc1nc2ccc(Cn3cnc4cc(C5=CCCCC5)ccc43)cc2s1 [Example 184, (1R,2R)-2-((6-((5-(cyclohex-1-en-1-yl)-1H-benzo[d]imidazol-1-yl)methyl)benzo[d]thiazol-2-yl)amino)cyclohexanol]	200 to 500 nM
OC[C@@H]1CCC[C@@H](Nc2nc3ccc(Cn4cnc5cc(F)cnc54)cc3s2)C1 [Example 192, ((1R,3R)-3-((6-((6-fluoro-3H-imidazo[4,5-b]pyridin-3-yl)methyl)benzo[d]thiazol-2-yl)amino)cyclohexyl)methanol]	200 to 500 nM
CS[C@@H]1CCCC[C@H]1Nc1nc2ccc(Cn3cnc4cc(F)cnc43)cc2s1 [Example 181, 6-((6-fluoro-3H-imidazo[4,5-b]pyridin-3-yl)methyl)-N-((1R,2R)-2-(methylthio)cyclohexyl)benzo[d]thiazol-2-amine]	200 to 500 nM
OC[C@H]1CC[C@H](Nc2nc3ccc(Cn4cnc5cc(F)cnc54)cc3s2)CC1 [Example 179, (trans-4-((6-((6-fluoro-3H-imidazo[4,5-b]pyridin-3-yl)methyl)benzo[d]thiazol-2-yl)amino)cyclohexyl)methanol]	200 to 500 nM
O[C@@H]1CCCC[C@H]1Nc1nc2ccc(Cc3cnc4cccc(F)n34)cc2s1 [Example 186, (1R,2R)-2-((6-((5-fluoroimidazo[1,2-a]pyridin-3-yl)methyl)benzo[d]thiazol-2-yl)amino)cyclohexanol]	200 to 500 nM
O[C@@H]1CCCC[C@H]1Nc1nc2ccc(Cc3cnc4ccc(Br)nn34)cc2s1 [Example 177, (1R,2R)-2-((6-((6-bromoimidazo[1,2-b]pyridazin-3-yl)methyl)benzo[d]thiazol-2-yl)amino)cyclohexanol]	≤ 50 nM
O[C@@H]1CCCC[C@H]1Nc1nc2ccc(Cn3cnc4cc(OC5COC5)ccc43)cc2s1 [Example 182, (1R,2R)-2-((6-((5-(oxetan-3-yloxy)-1H-benzo[d]imidazol-1-yl)methyl)benzo[d]thiazol-2-yl)amino)cyclohexanol]	≤ 50 nM
